Experiments:
[1] = tested on: red blood cells; assay: Metabolite formation in the presence of red blood cells (HPLC, mass spectrometry); format: in vitro ADME; conditions: identified by HPLC and mass spectrometry
Protocol: (§1) These metabolites were identified by HPLC and mass spectrometry to be m-L-Sarcolysin, prolyl-m-L-sarcolysin, fluoro-phenylalanine and prolyl-m-sarcolysyl-p-fluoro-phenylalanin.
(§2) According to hitherto is available results this metabolite is most probably ADM linked to one Phe moiety. This was done with 1 ml of blood containing 20 μg/ml of the ADM derivative as well as 5×10^9 RBC compared to only 5×10^6 melanoma cells.

[2] = tested on: human melanoma cells; assay: Metabolite formation in the presence of human melanoma cells (HPLC, mass spectrometry); format: in vitro ADME; conditions: identified by HPLC and mass spectrometry
Protocol: as §1, §2

Prolyl-m-sarcolysyl-p-fluoro-phenylalanin [PSF]
metabolites in presence of red blood cells [1]: one major metabolite, namely m-L-sarcolysin
metabolites in the presence of cancer cells [2]: 4
